Experimental data from BindingDB's records for doi:10.1016/s0960-894x(03)00663-2 (Universidad De Buenos Aires, 2003).

Assays:
[1] = Binding affinity towards Trypanosoma cruzi farnesyl pyrophosphate synthase (TcFPPS)
[2] = target: Farnesyl pyrophosphate synthase (Trypanosoma cruzi); experiment: Inhibition of Trypanosoma cruzi farnesyl pyrophosphate synthase
[3] = target: Farnesyl pyrophosphate synthase (Trypanosoma cruzi); experiment: Binding affinity towards Trypanosoma cruzi farnesyl pyrophosphate synthase (TcFPPS)
[4] = as above; remark: listed apart in the source

With `CCCC(P(=O)(O)O)P(=O)(O)O` [(1-Phosphono-butyl)-phosphonic acid] the Ki [1] was 17 µM and the IC50 [2] was 150 µM.
With `CCCCCCC(P(=O)(O)O)P(=O)(O)O` [(1-Phosphono-heptyl)-phosphonic acid] the IC50 [2] was 4.54 µM and the Ki [3] was 0.54 µM.
`CCCCCC(P(=O)(O)O)P(=O)(O)O` [(1-Phosphono-hexyl)-phosphonic acid] gave an IC50 [2] of 5.67 µM and a Ki [4] of 0.47 µM.
In the case of `CCCCCCCCC(P(=O)(O)O)P(=O)(O)O` [(1-Phosphono-nonyl)-phosphonic acid], the IC50 [2] is reported as 4.25 µM and the Ki [3] is reported as 0.31 µM.
Compound `CCCCCCCC(P(=O)(O)O)P(=O)(O)O` [(1-Phosphono-octyl)-phosphonic acid] has an IC50 [2] of 19.7 µM and a Ki [3] of 1.88 µM.
`CCCCC(P(=O)(O)O)P(=O)(O)O` [(1-Phosphono-pentyl)-phosphonic acid] gave a Ki [1] of 0.79 µM and an IC50 [2] of 5.71 µM.
With `CCC(P(=O)(O)O)P(=O)(O)O` [(1-Phosphono-propyl)-phosphonic acid] the IC50 [2] was over 100 µM.
